Experimental findings from patent US20250145665A1, “MACROCYCLIC PEPTIDES USEFUL AS MODULATORS OF TNF ALPHA” (Bristol-Myers Squibb Company, priority 2023, published 2025) are described below.

Starred links: 1 amine or outer side, 2 acyl side, 3 side chain; linkers in the order of their positions; H or OH if unused. Positions of bridges follow the written chain, without caps; N, C: chain ends. Non-standard residues stand in square brackets, D forms with d. Residues, ends and D or L forms follow the SMILES beside them. *: point of attachment. X10 = Cn1cc(C(=O)Nc2ccc(-c3ccc(C[C@H](N[*:1])C(=O)[*:2])cc3)cc2)c2ccccc21; X74 = Cn1nc(C(=O)Nc2ccc(-c3ccc(C[C@H](N[*:1])C(=O)[*:2])cc3)cc2)c2cccnc21; X78 = O=C(Nc1ccc(-c2ccc(C[C@H](N[*:1])C(=O)[*:2])cc2)cc1)c1n[nH]c2ccccc12; X5 = Cn1nc(C(=O)Nc2ccc(-c3ccc(C[C@H](N[*:1])C(=O)[*:2])cc3)cc2)c2ccccc21; X9 = Cn1nc(C(=O)Nc2cccc(-c3ccc(C[C@H](N[*:1])C(=O)[*:2])cc3)c2)c2cccnc21; X17 = O=C(Nc1cccc(-c2ccc(C[C@H](N[*:1])C(=O)[*:2])cc2)c1)c1coc2ccccc12; X47 = O=C(Nc1ccc(-c2ccc(C[C@H](N[*:1])C(=O)[*:2])cc2)cc1)c1coc2ccccc12; Bip(4'-NH) = O=C([C@H](Cc1ccc(-c2ccc(N[*:3])cc2)cc1)N[*:1])[*:2]; Bip(4'-CONHMe) = CNC(=O)c1ccc(-c2ccc(C[C@H](N)C(=O)O)cc2)cc1; Bip(4'-COOH) = N[C@@H](Cc1ccc(-c2ccc(C(=O)O)cc2)cc1)C(=O)O; Bip(4'-NHAc) = CC(=O)Nc1ccc(-c2ccc(C[C@H](N)C(=O)O)cc2)cc1; Ala(morpholin-4-yl) = N[C@@H](CN1CCOCC1)C(=O)O; Phe(3-CONH2) = NC(=O)c1cccc(C[C@H](N)C(=O)O)c1; Benzoyl(3-Ph) = O=C(c1cccc(-c2ccccc2)c1)*; Bip = N[C@@H](Cc1ccc(-c2ccccc2)cc1)C(=O)O; 2Pal = N[C@@H](Cc1ccccn1)C(=O)O; Tic = O=C(O)[C@@H]1Cc2ccccc2CN1; Cha = N[C@@H](CC1CCCCC1)C(=O)O; Tle = CC(C)(C)[C@H](N)C(=O)O; Aze = O=C(O)[C@@H]1CCN1; Sar = CNCC(=O)O

The IC50 is the concentration that gives 50% inhibition.

The target of this assay is TNFα (Homo sapiens, UniProt P01375). In words: TNF-Induced HEK-Blue Assay. Particulars: HEK-Blue-CD40L cells, NF-kB-driven secreted alkaline phosphatase reporter; TNFα 0.5 ng/ml; 18 h; read-out: TNF induced HEK-Blue assay IC50 value. It counts as cell-based.
Chain of TNFα (P01375 77-233 limits assumed): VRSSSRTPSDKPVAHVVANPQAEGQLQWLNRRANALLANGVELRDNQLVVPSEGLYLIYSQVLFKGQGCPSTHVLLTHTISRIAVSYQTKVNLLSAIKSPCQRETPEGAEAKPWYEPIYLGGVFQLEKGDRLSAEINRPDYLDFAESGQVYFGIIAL
Turning to `CC[C@H](C)[C@@H]1NC(=O)[C@@H]2CCCN2C(=O)[C@H]([C@@H](C)CC)NC(=O)[C@@H](CCCNC(=N)N)NC(=O)[C@H](CC(=O)O)NC(=O)[C@H](Cc2ccccn2)NC(=O)CN(C)C(=O)[C@H](Cc2ccc(-c3ccc(NC(=O)c4nn(C)c5ccccc45)cc3)cc2)NC(=O)[C@H](Cc2ccc(-c3ccccc3)cc2)NC(=O)[C@H](C(C)(C)C)NC(=O)CSC[C@@H](C(=O)NCC(N)=O)NC(=O)[C@H](CC(C)C)NC(=O)[C@H](Cc2cccc(C(N)=O)c2)NC1=O` [Example 335] ({CH2CO}-[Tle][Bip][X5][Sar][2Pal]D[dR]IPI[Phe(3-CONH2)]LCG-NH2; thioether N-13), the IC50 was in the range of 0.05 to 0.2 µM.

In the case of `CC[C@H](C)[C@@H]1NC(=O)[C@@H](CCCNC(=N)N)NC(=O)[C@H](CC(=O)O)NC(=O)[C@H](Cc2cnc[nH]2)NC(=O)CN(C)C(=O)[C@H](Cc2ccc(-c3ccc(NC(=O)c4nn(C)c5ccccc45)cc3)cc2)NC(=O)[C@H](Cc2ccc(-c3ccc(C(=O)O)cc3)cc2)NC(=O)[C@H](CC2CCCCC2)NC(=O)CSC[C@@H](C(=O)NCC(N)=O)NC(=O)[C@H](CC(C)C)NC(=O)[C@H](Cc2cnc[nH]2)NC(=O)[C@H](C(C)C)NC(=O)[C@@H]2Cc3ccccc3CN2C1=O` [Example 336] ({CH2CO}-[Cha][Bip(4'-COOH)][X5][Sar]HD[dR]I[Tic]VHLCG-NH2; thioether N-13), the IC50 is under 0.05 µM. As to `CC[C@H](C)[C@@H]1NC(=O)[C@@H]2CCN2C(=O)[C@H]([C@@H](C)CC)NC(=O)[C@@H](CCCNC(=N)N)NC(=O)[C@H](CC(=O)O)NC(=O)[C@H](Cc2ccc(O)cc2)NC(=O)CN(C)C(=O)[C@H](Cc2ccc(-c3ccc(NC(=O)c4nn(C)c5ccccc45)cc3)cc2)NC(=O)[C@H](Cc2ccc(-c3ccccc3)cc2)NC(=O)[C@H](C(C)(C)C)NC(=O)CSC[C@@H](C(=O)NCC(N)=O)NC(=O)[C@H](CC(C)C)NC(=O)[C@H](Cc2ccc(O)cc2)NC1=O` [Example 337] ({CH2CO}-[Tle][Bip][X5][Sar]YD[dR]I[Aze]IYLCG-NH2; thioether N-13), the IC50 fell in the range of 0.05 to 0.2 µM. In the case of `CC(C)C[C@@H]1NC(=O)[C@H](CCCNC(=N)N)NC(=O)[C@H](C(C)C)NC(=O)[C@@H]2CCCN2C(=O)[C@H](C(C)C)NC(=O)[C@@H](CCCNC(=N)N)NC(=O)[C@H](CC(=O)O)NC(=O)[C@@H]2CCCN2C(=O)CN(C)C(=O)[C@H](Cc2ccc(-c3ccc(NC(=O)c4nn(C)c5ccccc45)cc3)cc2)NC(=O)[C@H](Cc2ccc(-c3ccccc3)cc2)NC(=O)[C@H](CN2CCOCC2)NC(=O)CSC[C@@H](C(=O)NCC(N)=O)NC1=O` [Example 338] ({CH2CO}-[Ala(morpholin-4-yl)][Bip][X5][Sar]PD[dR]VPVRLCG-NH2; thioether N-13), the half-inhibitory concentration (IC50) is under 0.05 µM. Turning to `CC(C)C[C@@H]1NC(=O)[C@H](Cc2ccccn2)NC(=O)[C@H](C(C)C)NC(=O)[C@@H]2CCCN2C(=O)[C@H](C(C)C)NC(=O)[C@@H](CCCNC(=N)N)NC(=O)[C@H](CC(=O)O)NC(=O)[C@H](Cc2ccc(O)cc2)NC(=O)CN(C)C(=O)[C@H](Cc2ccc(-c3ccc(NC(=O)c4nn(C)c5ccccc45)cc3)cc2)NC(=O)[C@H](Cc2ccc(-c3ccc(C(=O)O)cc3)cc2)NC(=O)[C@H](CC2CCCCC2)NC(=O)CSC[C@@H](C(=O)NCC(N)=O)NC1=O` [Example 339] ({CH2CO}-[Cha][Bip(4'-COOH)][X5][Sar]YD[dR]VPV[2Pal]LCG-NH2; thioether N-13), the IC50 was under 0.05 µM.

For the molecule `CC(C)C[C@@H]1NC(=O)[C@H](Cc2ccc(O)cc2)NC(=O)[C@H](C(C)C)NC(=O)[C@@H]2CCCN2C(=O)[C@H](C(C)C)NC(=O)[C@@H](CCCNC(=N)N)NC(=O)[C@H](CC(=O)O)NC(=O)[C@@H]2CCCN2C(=O)CN(C)C(=O)[C@H](Cc2ccc(-c3ccc(NC(=O)c4nn(C)c5ccccc45)cc3)cc2)NC(=O)[C@H](Cc2ccc(-c3ccc(C(=O)O)cc3)cc2)NC(=O)[C@H](CC2CCCCC2)NC(=O)CSC[C@@H](C(=O)NCC(N)=O)NC1=O` [Example 340] ({CH2CO}-[Cha][Bip(4'-COOH)][X5][Sar]PD[dR]VPVYLCG-NH2; thioether N-13), the IC50 is under 0.05 µM. As to `CC[C@H](C)[C@@H]1NC(=O)[C@@H](CCCNC(=N)N)NC(=O)[C@H](CC(=O)O)NC(=O)[C@H](Cc2cnc[nH]2)NC(=O)CN(C)C(=O)[C@H](Cc2ccc(-c3ccc(NC(=O)c4nn(C)c5ccccc45)cc3)cc2)NC(=O)[C@H](Cc2ccc(-c3ccccc3)cc2)NC(=O)[C@H](CC2CCCCC2)NC(=O)CSC[C@@H](C(=O)NCC(N)=O)NC(=O)[C@H](CC(C)C)NC(=O)[C@H](Cc2cnc[nH]2)NC(=O)[C@H](C(C)C)NC(=O)[C@@H]2CCCN2C1=O` [Example 341] ({CH2CO}-[Cha][Bip][X5][Sar]HD[dR]IPVHLCG-NH2; thioether N-13), the IC50 was under 0.05 µM. Turning to `CC[C@H](C)[C@@H]1NC(=O)[C@@H](CCCNC(=N)N)NC(=O)[C@H](CC(=O)O)NC(=O)[C@H](Cc2cnc[nH]2)NC(=O)CN(C)C(=O)[C@H](Cc2ccc(-c3ccc(NC(C)=O)cc3)cc2)NC(=O)[C@H](Cc2ccc(-c3ccc(C(=O)NC)cc3)cc2)NC(=O)[C@H](CC2CCCCC2)NC(=O)CSC[C@@H](C(=O)NCC(N)=O)NC(=O)[C@H](CC(C)C)NC(=O)[C@H](Cc2cnc[nH]2)NC(=O)[C@H](C(C)C)NC(=O)[C@@H]2CCCN2C1=O` [Example 342] ({CH2CO}-[Cha][Bip(4'-CONHMe)][Bip(4'-NHAc)][Sar]HD[dR]IPVHLCG-NH2; thioether N-13), the IC50 was under 0.05 µM.

Regarding `CC(C)C[C@@H]1NC(=O)[C@H](CCCNC(=N)N)NC(=O)[C@H](C(C)C)NC(=O)[C@@H]2CCCN2C(=O)[C@H](C(C)C)NC(=O)[C@@H](CCCNC(=N)N)NC(=O)[C@H](CC(=O)O)NC(=O)[C@@H]2CCCN2C(=O)CN(C)C(=O)[C@H](Cc2ccc(-c3ccc(NC(=O)c4n[nH]c5ccccc45)cc3)cc2)NC(=O)[C@H](Cc2ccc(-c3ccccc3)cc2)NC(=O)[C@H](CN2CCOCC2)NC(=O)CSC[C@@H](C(=O)NCC(N)=O)NC1=O` [Example 343] ({CH2CO}-[Ala(morpholin-4-yl)][Bip][X78][Sar]PD[dR]VPVRLCG-NH2; thioether N-13), the IC50 was under 0.05 µM. Consider `CC(C)C[C@@H]1NC(=O)[C@H](CCCNC(=N)N)NC(=O)[C@H](C(C)C)NC(=O)[C@@H]2CCCN2C(=O)[C@H](C(C)C)NC(=O)[C@@H](CCCNC(=N)N)NC(=O)[C@H](CC(=O)O)NC(=O)[C@@H]2CCCN2C(=O)CN(C)C(=O)[C@H](Cc2ccc(-c3cccc(NC(=O)c4coc5ccccc45)c3)cc2)NC(=O)[C@H](Cc2ccc(-c3ccccc3)cc2)NC(=O)[C@H](CN2CCOCC2)NC(=O)CSC[C@@H](C(=O)NCC(N)=O)NC1=O` [Example 344] ({CH2CO}-[Ala(morpholin-4-yl)][Bip][X17][Sar]PD[dR]VPVRLCG-NH2; thioether N-13), for which the IC50 is under 0.05 µM. As for `CC(C)C[C@@H]1NC(=O)[C@H](CCCNC(=N)N)NC(=O)[C@H](C(C)C)NC(=O)[C@@H]2CCCN2C(=O)[C@H](C(C)C)NC(=O)[C@@H](CCCNC(=N)N)NC(=O)[C@H](CC(=O)O)NC(=O)[C@@H]2CCCN2C(=O)CN(C)C(=O)[C@H](Cc2ccc(-c3cccc(NC(=O)c4nn(C)c5ncccc45)c3)cc2)NC(=O)[C@H](Cc2ccc(-c3ccccc3)cc2)NC(=O)[C@H](CN2CCOCC2)NC(=O)CSC[C@@H](C(=O)NCC(N)=O)NC1=O` [Example 345] ({CH2CO}-[Ala(morpholin-4-yl)][Bip][X9][Sar]PD[dR]VPVRLCG-NH2; thioether N-13), the IC50 is under 0.05 µM. As for `CC(C)C[C@@H]1NC(=O)[C@H](CCCNC(=N)N)NC(=O)[C@H](C(C)C)NC(=O)[C@@H]2CCCN2C(=O)[C@H](C(C)C)NC(=O)[C@@H](CCCNC(=N)N)NC(=O)[C@H](CC(=O)O)NC(=O)[C@@H]2CCCN2C(=O)CN(C)C(=O)[C@H](Cc2ccc(-c3ccc(NC(=O)c4coc5ccccc45)cc3)cc2)NC(=O)[C@H](Cc2ccc(-c3ccccc3)cc2)NC(=O)[C@H](CN2CCOCC2)NC(=O)CSC[C@@H](C(=O)NCC(N)=O)NC1=O` [Example 346] ({CH2CO}-[Ala(morpholin-4-yl)][Bip][X47][Sar]PD[dR]VPVRLCG-NH2; thioether N-13), the half-inhibitory concentration (IC50) was under 0.05 µM. Take `CC(C)C[C@@H]1NC(=O)[C@H](CCCNC(=N)N)NC(=O)[C@H](C(C)C)NC(=O)[C@@H]2CCCN2C(=O)[C@H](C(C)C)NC(=O)[C@@H](CCCNC(=N)N)NC(=O)[C@H](CC(=O)O)NC(=O)[C@@H]2CCCN2C(=O)CN(C)C(=O)[C@H](Cc2ccc(-c3ccc(NC(=O)c4nn(C)c5ncccc45)cc3)cc2)NC(=O)[C@H](Cc2ccc(-c3ccccc3)cc2)NC(=O)[C@H](CN2CCOCC2)NC(=O)CSC[C@@H](C(=O)NCC(N)=O)NC1=O` [Example 347] ({CH2CO}-[Ala(morpholin-4-yl)][Bip][X74][Sar]PD[dR]VPVRLCG-NH2; thioether N-13): the IC50 is under 0.05 µM. In the case of `CC(C)C[C@@H]1NC(=O)[C@H](CCCNC(=N)N)NC(=O)[C@H](C(C)C)NC(=O)[C@@H]2CCCN2C(=O)[C@H](C(C)C)NC(=O)[C@@H](CCCNC(=N)N)NC(=O)[C@H](CC(=O)O)NC(=O)[C@@H]2CCCN2C(=O)CN(C)C(=O)[C@H](Cc2ccc(-c3ccc(NC(=O)c4cn(C)c5ccccc45)cc3)cc2)NC(=O)[C@H](Cc2ccc(-c3ccccc3)cc2)NC(=O)[C@H](CN2CCOCC2)NC(=O)CSC[C@@H](C(=O)NCC(N)=O)NC1=O` [Example 348] ({CH2CO}-[Ala(morpholin-4-yl)][Bip][X10][Sar]PD[dR]VPVRLCG-NH2; thioether N-13), the IC50 lay in the range of 0.05 to 0.2 µM.

Take `CC[C@H](C)[C@@H]1NC(=O)[C@@H](CCCNC(=N)N)NC(=O)[C@H](CC(=O)O)NC(=O)[C@H](Cc2cnc[nH]2)NC(=O)CN(C)C(=O)[C@H](Cc2ccc(-c3ccc(NC(=O)c4cccc(-c5ccccc5)c4)cc3)cc2)NC(=O)[C@H](Cc2ccc(-c3ccccc3)cc2)NC(=O)[C@H](CC2CCCCC2)NC(=O)CSC[C@@H](C(=O)NCC(N)=O)NC(=O)[C@H](CC(C)C)NC(=O)[C@H](Cc2cnc[nH]2)NC(=O)[C@H](C(C)C)NC(=O)[C@@H]2CCCN2C1=O` [Example 349] ({CH2CO}-[Cha][Bip][Bip(4'-NH)](Benzoyl(3-Ph))[Sar]HD[dR]IPVHLCG-NH2; thioether N-13): the IC50 is 0.2 to 2 µM.
